One data set has as its system active caspase-9. Kind of data set: Protein level of active caspase-9 in M109 cells (western blotting). Type of data set: cell-based, mouse. To be noted: 1 μM. The procedure:
(§1) FIG. 14. Effect of Dp44mT (1 μM) on the (A,B) protein levels of active caspase-3, -8 and -9, and (C,D) the activity of caspase-3, -8 and -9 in cultured M109 cells in the absence (C) and presence (D) of cell-permeable caspase inhibitors. (A) Caspase-3, -8, and -9 levels after Dp44mT treatment at indicated times as detected by western blotting (upper panel). The anti-β-actin antibody was used to ensure equal protein loading (lower panel). (B) Densitometric analysis of the expression of caspase-3, -8, and -9 as a function of time normalized to β-actin (C) Caspase activity induced by Dp44mT (1 μM) at 0-48 h was expressed as a percentage of the 0 h time value. (D) Cell-permeable inhibitors of caspase-3, -8 or -9 at 1 μM prevented activation of these enzymes when incubated with Dp44mT (1 μM) for 48 h. Results are mean±SEM of three separate experiments.
(§2) Rabbit anti-active caspase-3 antibody, rabbit anti-active caspase-8 antibody and Annexin V fluorescein isothiocyanate (FITC) were from BD PharMingen (San Diego, Calif., USA). Anti-h-cytc MoAb was from R&D Systems Minneapolis, Minn., USA). Rabbit anti-active caspase-9 antibody, mouse anti-Bcl-2 and mouse anti-Bax antibodies were obtained from Santa Cruz (Santa Cruz, Calif., USA). Mouse anti-mouse β-actin antibody, horseradish peroxidase-conjugated antirabbit, and anti-mouse IgG were from Sigma Chemical Co. (St. Louis, Mo., USA).
(§3) To determine the role of caspase activation in Dp44mT-induced apoptosis in M109 cells, protein levels of active caspase-3, -8 and -9 (FIG. 14A,B) and their enzymatic activity (FIG. 14C,D) were examined.
(In western blotting, separated proteins are transferred to a membrane and probed.)

A further data set has as its system Bcl-2. Kind of data set: Mitochondrial Bcl-2 protein level in M109 cells. Particulars: 1 μM. Type of data set: cell-based, mouse. The method, then:
(§4) Considering the roles of Bcl-2 and Bax in the mitochondrial pathway of apoptosis and their role in h-cytc release, ^8,11,12 the effect of Dp44mT (1 μM) on the protein levels of these molecules was assessed (FIG. 15B).

Another data set relates to active caspase-3. Nature of the data set: Protein level of active caspase-3 in M109 cells (western blotting). The format is cell-based, mouse. To be noted: 1 μM. The method, then:
as §1, §2, §3

Data set [1] concerns holo-cytochrome c (h-cytc). Kind of data set: Release of holo-cytochrome c from mitochondria into cytosol of M109 cells. Particulars: 1 μM, 2 h exposure (FIG. 15A). The format is cell-based, mouse. The method, then:
Due to the importance of h-cytc release from the mitochondrion on apoptosis induction,^8 further studies investigated the effect of Dp44mT on this process (FIG. 15A). Preparation of cytosolic and mitochondrial fractions and western blotting were carried out using standard techniques.^27 There was very little h-cytc expression in the cytosolic fractions of control M109 cells (i.e., at 0 h), with the greatest amount of h-cytc being found in the mitochondrion at this time (FIG. 15A). […] The release of h-cytc into the cytosol plateaued after a 4 h incubation with Dp44mT and then decreased to that found in control cells after 24 and 48 h. This increase in cytosolic h-cytc correlated with the loss from the mitochondrion (FIG. 15A). The near complete disappearance of h-cytc from the cytosol at 24 and 48 h may be due to its release from cells or its degradation^28 (FIG. 15A).

Data set [2] can be described thus: Maximum tolerated dose in CD2F1 hybrid mice. Type of data set: in vivo. To be noted: CD2F1 mice, iv twice a day. The method, then:
BALB/c and DBA/2 mice were obtained from Animal Resources Centre (University of New South Wales (UNSW), Sydney, Australia) and crossed to produce CD2F1 animals (all procedures used were approved by the Animal Ethics Committee, UNSW). Groups of eight female CD2F1 mice (8-10 weeks old) were fed and watered ad-libitum, and injected via the tail vein with compounds being studied in 30% propylene glycol in 0.9% sterile saline, twice a day, 6 h apart, 5 days/week for 2 weeks. The maximum tolerated dose (MTD) was defined as the dose at which 30% of a cohort either died or lost weight in excess of 10%.^19

The test system of another data set is intracellular ROS. Kind of data set: Intracellular ROS assay (DCF-DA, flow cytometry), M109 cells. Type of data set: cell-based, mouse. Particulars: 1 μM. The procedure: Intracellular ROS generation was assessed using the cell-permeable dye 2′,7′-dichlorofluorescein-diacetate (DCF-DA) (Sigma). DCF-DA readily diffuses into cells and becomes highly fluorescent when oxidised by O2^•−, H2O2, or OH^−.^29 Cellular fluorescence intensity is directly proportional to the level of intracellular ROS.^29 M109 cells (1×10^5 cells/well) were incubated with or without 1 μM Dp44mT for 0-48 h or 50 μM H2O2 (positive control) for 10 min at 37° C. The cells were then incubated with DCF-DA (5 μM) for 20 min at 37° C., washed twice, and detached from the culture plates. The fluorescence of oxidised DCF in cells was measured using flow cytometry.^29)
To test whether induction of h-cytc release from the mitochondrion (FIG. 15A) and the imbalance of Bcl-2/Bax expression (FIG. 15B) was due to the presence of ROS, intracellular ROS were measured by flow cytometry using the DCFH-DA probe which becomes fluorescent when oxidised by O2^•−, H2O2, or OH^−.^29 Incubation of M109 cells with Dp44mT (1 μM) increased the levels of oxidised probe as a function of time. After 2 h, a 25±10% increase in oxidised DCFH-DA fluorescence was found compared to the 0 h time point, and this increased to 486±96% after 48 h (FIG. 15C). For comparison, a 10 min incubation with the positive control, H2O2 (50 μM), increased fluorescence to 1312±46% of the 0 h time point (FIG. 15C)

For another data set, the system named is Bax. Nature of the data set: Bax protein level in M109 cells. Particulars: 1 μM, 48 h. Type of data set: cell-based, mouse. The procedure:
as §4

For data set [3], the system named is SK-N-MC neuroepithelioma cells. Nature of the data set: 3H-thymidine incorporation by SK-N-MC cells. The format is cell-based, human. To be noted: 20 h incubation then 2 h label; Mean ± SD, 4 experiments. The method, then: (§5) After a 20 h incubation of the SK-N-MC cells with a selection of analogues, ^3H-thymidine, ^3H-leucine, or ^3H-uridine (1 μCi/ml) was added for 2 h at 37° C. The cells were detached from the 96 well plate using 1 mM EDTA in Ca(II)/Mg(II)-free PBS and collected and washed using a cell harvester (Tomtec Harvester 96, Linbrook, Queensland, Australia). Radioactivity was measured on a P-scintillation counter (LKB Wallace, Turku, Finland).
For orientation: Incorporation of labelled thymidine or its analogues reports DNA synthesis.

Data set [4] concerns iron regulatory proteins (IRPs). Kind of data set: IRP-RNA-binding activity, gel-retardation assay, SK-N-MC cells. Type of data set: cell-based, human. Particulars: DFO 100 μM, FAC 100 μg/ml, other chelators 25 μM, 20 h (FIG. 8).
Experimental: The IRP-RNA-binding activity was then assessed by the gel-retardation assay. Aliquots of cell lysate containing 2 μg of protein were incubated with 0.1 ng (approximately 1×10^5 cpm) of ^32P-labelled riboprobe for 30 min at room temperature. Using this protocol the level of RNA added was saturating. Unprotected probe was degraded by incubation with 1 U of RNAse T1 for 10 min at room temperature. Heparin (5 mg/ml) was then added for another 10 min to exclude non-specific binding. The IRE-protein complexes were analyzed on 6% non-denaturing polyacrylamide gels. In parallel experiments, samples were treated with ferricyanide (FeCN, 5 mM) and 0.5% β-mercaptoethanol (β-ME), prior to addition of the IRE probe. This procedure results in the conversion of IRP1, whether spontaneously active or not, into an active IRE-binding form.^22
For data set [5], the system named is SK-N-MC neuroepithelioma cells. Kind of data set: 3H-leucine incorporation by SK-N-MC cells. Type of data set: cell-based, human. Particulars: 20 h incubation then 2 h label; Mean ± SD, 4 experiments. The method, then:
as §5

Values joined by “and” are separate entries in the source; they are usually repeats but may differ in a detail not shown here. Identical values can stand only once.

Regarding `CN(C)C(=S)NN=C(c1ccccn1)c1ccccn1` [Dp44mT, di-2-pyridylketone 4,4-dimethyl-3-thiosemicarbazone], the caspase-9 protein level in the data set on active caspase-9 (2 h) is reported as 171 % of the control; in the data set on active caspase-9 (6 h), 280 % of the control; in the data set with active caspase-9 (12 h), 280 % of the control; in the data set with active caspase-9 (24 h) it was “about 4 fold that of control cells”; in the data set with active caspase-9 (48 h) it was “greater than 10 fold that of control cells”. For the same compound, the results for the Bcl-2 protein level with Bcl-2 (2 h) and in the data set with Bcl-2 (48 h) were 69 % of the 0 h time point and 37 % of the 0 h time point, respectively. The caspase-3 protein level in the data set with active caspase-3 (2 h) is listed as 168 % of the control; in the data set with active caspase-3 (6 h) it was 400 % of the control; in the data set on active caspase-3 (12 h), 380 % of the control; with active caspase-3 (24 h), “about 4 fold that of control cells”; with active caspase-3 (48 h), 5.5 fold that of control cells. The “h-cytc release from the mitochondrion” value in data set [1] is on record as “h-cytc was found in the cytosolic fraction”. In addition, in data set [2], the “maximum tolerated dose (MTD)” value stood at 0.4 mg/kg. Also, the “increase in oxidised DCFH-DA fluorescence compared to the 0 h time point” value in the data set with intracellular ROS (2 h) was found to be 25±10%. Besides, the “oxidised DCFH-DA fluorescence (increased to)” value in the data set with intracellular ROS (48 h) turned out to be 486±96%. Also, in the data set with Bax, the Bax expression is listed as 500 % of that found at the 0 h time point.

For the compound `CC(=O)N(O)CCCCCNC(=O)CCC(=O)N(O)CCCCCNC(=O)CCC(=O)N(O)CCCCCN` [DFO, desferrioxamine], the “3H-Thymidine Incorporation” value in [3] is 29 ± 13 % Control and 29 + 13 % Control. Further, in [4], the “IRP-RNA binding activity” value was “increase”. Moreover, the “3H-Leucine Incorporation” value in data set [5] worked out at 9 ± 1 % Control.

For the origin of these results see patent US20060252798A1, “Metal ion chelators and therapeutic use thereof” (priority 2003, published 2006).
